Tests used:
Rho kinase 2 (ROCK2) = Rho kinase 2 (ROCK2) (Homo sapiens, UniProt O75116); assay: In vitro Rho kinase inhibitory activity assay (ADP-Glo), ROCK2; type: biochemical; conditions: 10 μM ATP, Myelin Basic Protein substrate, 25° C., Ki by Cheng-Prusoff
Protocol: (§1) The effectiveness of compounds of the invention to inhibit Rho kinase activity can be determined in a 10 μl assay containing 40 mM Tris pH7.5, 20 mM MgCl2 0.1 mg/ml BSA, 50 μM DTT and 2.5 μM peptide substrate (Myelin Basic Protein) using an ADP-Glo kit (Promega). Compounds were dissolved in DMSO such that the final concentration of DMSO was 1% in the assay. All reactions/incubations are performed at 25° C. Compound (2 ul) and either Rho kinase 1 or 2 (4 μl) were mixed and incubated for 30 mins. Reactions were initiated by addition of ATP (4 μl) such that the final concentration of ATP in the assay was 10 μM. After a 1 hour incubation 10 μl of ADP-Glo Reagent was added and after a further 45 minute incubation 20 ul of Kinase Detection Buffer was added and the mixture incubated for a further 30 minutes. The luminescent signal was measured on a luminometer. […] Compounds were tested in dose-response format and the inhibition of kinase activity was calculated at each concentration of compound. To determine the IC50 (concentration of compound required to inhibit 50% of the enzyme activity) data were fit to a plot of % inhibition vs Log10 compound concentration using a sigmoidal fit with a variable slope and fixing the maximum to 100% and the minimum to 0%. To determine the Ki values the Cheng-Prusoff equation was utilized (Ki=IC50/(1+[S]/Km)

Rho kinase 1 (ROCK1) = Rho kinase 1 (ROCK1) (Homo sapiens, UniProt Q13464); assay: In vitro Rho kinase inhibitory activity assay (ADP-Glo), ROCK1; type: biochemical; conditions: 10 μM ATP, Myelin Basic Protein substrate, 25° C., Ki by Cheng-Prusoff
Sequence of Rho kinase 1 (ROCK1) (Q13464 whole entry): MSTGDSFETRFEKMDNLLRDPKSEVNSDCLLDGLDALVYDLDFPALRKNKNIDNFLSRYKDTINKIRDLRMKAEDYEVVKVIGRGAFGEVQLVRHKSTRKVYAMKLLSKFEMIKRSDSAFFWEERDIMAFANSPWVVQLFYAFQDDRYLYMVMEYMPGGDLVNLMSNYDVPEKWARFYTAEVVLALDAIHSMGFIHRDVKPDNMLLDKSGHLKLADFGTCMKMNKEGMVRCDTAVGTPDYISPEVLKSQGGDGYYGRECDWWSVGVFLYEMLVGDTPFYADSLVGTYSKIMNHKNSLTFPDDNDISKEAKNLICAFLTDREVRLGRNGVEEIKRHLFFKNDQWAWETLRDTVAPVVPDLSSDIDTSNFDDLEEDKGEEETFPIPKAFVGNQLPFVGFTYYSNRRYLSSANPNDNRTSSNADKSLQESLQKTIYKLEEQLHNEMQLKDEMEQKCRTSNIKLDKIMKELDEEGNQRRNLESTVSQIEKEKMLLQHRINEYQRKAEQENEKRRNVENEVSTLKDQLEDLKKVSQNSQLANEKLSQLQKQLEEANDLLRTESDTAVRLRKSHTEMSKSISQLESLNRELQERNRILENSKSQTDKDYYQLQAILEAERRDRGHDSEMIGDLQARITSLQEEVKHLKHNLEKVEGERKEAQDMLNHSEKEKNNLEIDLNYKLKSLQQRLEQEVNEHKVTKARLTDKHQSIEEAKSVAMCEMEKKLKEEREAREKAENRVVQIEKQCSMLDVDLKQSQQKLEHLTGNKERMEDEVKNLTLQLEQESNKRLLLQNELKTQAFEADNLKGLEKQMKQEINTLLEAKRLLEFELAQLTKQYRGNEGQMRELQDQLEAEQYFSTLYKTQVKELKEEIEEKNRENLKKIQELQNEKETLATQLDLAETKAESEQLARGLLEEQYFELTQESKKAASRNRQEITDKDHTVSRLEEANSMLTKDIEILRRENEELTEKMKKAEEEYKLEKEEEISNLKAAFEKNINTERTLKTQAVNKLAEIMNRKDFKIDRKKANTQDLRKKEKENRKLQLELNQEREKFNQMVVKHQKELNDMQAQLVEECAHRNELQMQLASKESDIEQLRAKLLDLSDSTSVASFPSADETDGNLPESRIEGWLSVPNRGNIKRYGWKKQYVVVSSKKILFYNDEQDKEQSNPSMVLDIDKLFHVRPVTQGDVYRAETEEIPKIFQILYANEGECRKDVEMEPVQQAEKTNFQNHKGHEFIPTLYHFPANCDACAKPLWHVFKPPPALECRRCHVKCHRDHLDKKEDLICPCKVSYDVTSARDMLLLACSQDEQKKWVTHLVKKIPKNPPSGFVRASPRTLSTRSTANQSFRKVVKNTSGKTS
Protocol: as §1

Sequence of Rho kinase 2 (ROCK2) (O75116 whole entry): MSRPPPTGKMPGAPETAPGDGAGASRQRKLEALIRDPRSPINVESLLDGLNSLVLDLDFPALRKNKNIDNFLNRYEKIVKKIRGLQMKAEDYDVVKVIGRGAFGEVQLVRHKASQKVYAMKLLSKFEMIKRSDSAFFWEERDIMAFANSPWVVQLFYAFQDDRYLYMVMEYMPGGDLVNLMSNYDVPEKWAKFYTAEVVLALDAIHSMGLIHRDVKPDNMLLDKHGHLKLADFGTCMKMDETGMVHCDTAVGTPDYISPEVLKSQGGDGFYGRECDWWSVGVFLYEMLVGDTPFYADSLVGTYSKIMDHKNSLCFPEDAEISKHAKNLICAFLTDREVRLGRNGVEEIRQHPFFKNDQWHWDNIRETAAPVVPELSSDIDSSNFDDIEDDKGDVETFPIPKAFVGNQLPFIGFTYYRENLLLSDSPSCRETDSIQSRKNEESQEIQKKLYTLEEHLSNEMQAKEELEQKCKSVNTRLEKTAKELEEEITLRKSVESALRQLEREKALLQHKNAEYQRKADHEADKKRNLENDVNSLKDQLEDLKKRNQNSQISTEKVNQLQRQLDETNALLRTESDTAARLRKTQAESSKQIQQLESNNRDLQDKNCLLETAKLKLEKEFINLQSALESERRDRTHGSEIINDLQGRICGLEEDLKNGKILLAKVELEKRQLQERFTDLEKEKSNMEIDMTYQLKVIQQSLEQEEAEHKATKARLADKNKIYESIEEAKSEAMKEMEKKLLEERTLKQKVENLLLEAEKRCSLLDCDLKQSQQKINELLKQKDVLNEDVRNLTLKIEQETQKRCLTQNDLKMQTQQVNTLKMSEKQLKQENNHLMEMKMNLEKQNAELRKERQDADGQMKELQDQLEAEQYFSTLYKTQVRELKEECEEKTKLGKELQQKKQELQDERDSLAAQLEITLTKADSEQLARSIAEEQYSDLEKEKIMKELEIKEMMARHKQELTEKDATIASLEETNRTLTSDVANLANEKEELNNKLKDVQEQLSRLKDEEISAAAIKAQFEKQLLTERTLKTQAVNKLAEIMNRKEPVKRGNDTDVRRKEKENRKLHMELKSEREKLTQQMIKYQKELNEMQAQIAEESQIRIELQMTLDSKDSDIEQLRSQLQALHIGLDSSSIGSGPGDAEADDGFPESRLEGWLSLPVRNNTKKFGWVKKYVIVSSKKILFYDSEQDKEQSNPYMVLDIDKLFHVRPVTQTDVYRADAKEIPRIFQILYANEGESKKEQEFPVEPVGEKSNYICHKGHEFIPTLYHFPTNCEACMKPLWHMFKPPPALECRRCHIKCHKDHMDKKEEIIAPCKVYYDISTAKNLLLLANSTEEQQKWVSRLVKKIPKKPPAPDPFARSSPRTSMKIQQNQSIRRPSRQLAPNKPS

| Ki (Rho kinase 2 (ROCK2)) | Ki (Rho kinase 1 (ROCK1)) | Compound |
| --- | --- | --- |
| 5 to 50 nM | 5 to 50 nM | Cc1c[nH]c2nccc(Oc3cccc(CC(N)C(=O)N4CCN(C)CC4)c3)c12 (centres unmarked) [Example 1, 2-Amino-3-(3-((3-methyl-1H-pyrrolo[2,3-b]pyridin-4-yl)oxy)phenyl)-1-(4-methylpiperazin-1-yl)propan-1-one] |
| 5 to 50 nM | 5 to 50 nM | COCCCNC(=O)C(N)Cc1cccc(Oc2ccnc3[nH]cc(C)c23)c1 (centres unmarked) [Example 2, 2-amino-N-(3-methoxypropyl)-3-(3-((3-methyl-1H-pyrrolo[2,3-b]pyridin-4-yl)oxy)phenyl)propanamide] |
| > 50 nM | > 50 nM | Cc1c[nH]c2nccc(Oc3cccc(CC(N)C(=O)NCCCN(C)C)c3)c12 (centres unmarked) [Example 3, 2-amino-N-(3-(dimethylamino)propyl)-3-(3-((3-methyl-1H-pyrrolo[2,3-b]pyridin-4-yl)oxy)phenyl)propanamide] |
| < 5 nM | < 5 nM | Cc1c[nH]c2nccc(Oc3cccc(CC(N)C(=O)NCCc4ccncc4)c3)c12 (centres unmarked) [Example 4, 2-amino-3-(3-((3-methyl-1H-pyrrolo[2,3-b]pyridin-4-yl)oxy)phenyl)-N-(2-(pyridin-4-yl)ethyl)propanamide] |
| 5 to 50 nM | 5 to 50 nM | Cc1c[nH]c2nccc(Oc3cccc(C(N)CC(=O)N4CCN(C)CC4)c3)c12 (centres unmarked) [Example 5, 3-amino-3-(3-((3-methyl-1H-pyrrolo[2,3-b]pyridin-4-yl)oxy)phenyl)-1-(4-methylpiperazin-1-yl)propan-1-one] |
| 5 to 50 nM | 5 to 50 nM | COCCCNC(=O)CC(N)c1cccc(Oc2ccnc3[nH]cc(C)c23)c1 (centres unmarked) [Example 6, 3-amino-N-(3-methoxypropyl)-3-(3-((3-methyl-1H-pyrrolo[2,3-b]pyridin-4-yl)oxy)phenyl)propanamide] |
| 5 to 50 nM | 5 to 50 nM | Cc1c[nH]c2nccc(Oc3cccc(C(N)CC(=O)NCCc4ccncc4)c3)c12 (centres unmarked) [Example 7, 3-amino-3-(3-((3-methyl-1H-pyrrolo[2,3-b]pyridin-4-yl)oxy)phenyl)-N-(2-(pyridin-4-yl)ethyl)propanamide] |
| > 50 nM | > 50 nM | Cc1c[nH]c2nccc(Oc3cccc(C(N)CC(=O)NCCCN(C)C)c3)c12 (centres unmarked) [Example 8, 3-amino-N-(3-(dimethylamino)propyl)-3-(3-((3-methyl-1H-pyrrolo[2,3-b]pyridin-4-yl)oxy)phenyl)propanamide] |
| > 50 nM | > 50 nM | Cc1c[nH]c2nccc(Oc3cccc(CC(CN)C(=O)N4CCN(C)CC4)c3)c12 (centres unmarked) [Example 9, 3-amino-2-(3-((3-methyl-1H-pyrrolo[2,3-b]pyridin-4-yl)oxy)benzyl)-1-(4-methylpiperazin-1-yl)propan-1-one] |
| 5 to 50 nM | 5 to 50 nM | COCCCNC(=O)C(CN)Cc1cccc(Oc2ccnc3[nH]cc(C)c23)c1 (centres unmarked) [Example 10, 3-amino-N-(3-methoxypropyl)-2-(3-((3-methyl-1H-pyrrolo[2,3-b]pyridin-4-yl)oxy)benzyl)propanamide] |
| 5 to 50 nM | 5 to 50 nM | Cc1c[nH]c2nccc(Oc3cccc(CC(CN)C(=O)NCCc4ccncc4)c3)c12 (centres unmarked) [Example 11, 3-amino-2-(3-((3-methyl-1H-pyrrolo[2,3-b]pyridin-4-yl)oxy)benzyl)-N-(2-(pyridin-4-yl)ethyl)propanamide] |
| > 50 nM | > 50 nM | Cc1c[nH]c2nccc(Oc3cccc(CC(CN)C(=O)NCCCN(C)C)c3)c12 (centres unmarked) [Example 12, 3-amino-N-(3-(dimethylamino)propyl)-2-(3-((3-methyl-1H-pyrrolo[2,3-b]pyridin-4-yl)oxy)benzyl)propanamide] |
| 5 to 50 nM | 5 to 50 nM | Cc1c[nH]c2nccc(Oc3cccc(C(CN)CC(=O)NCCc4ccncc4)c3)c12 (centres unmarked) [Example 13, 4-Amino-3-(3-((3-methyl-1H-pyrrolo[2,3-b]pyridin-4-yl)oxy)phenyl)-N-(2-(pyridin-4-yl)ethyl)butanamide] |
| 5 to 50 nM | 5 to 50 nM | COCCCNC(=O)CC(CN)c1cccc(Oc2ccnc3[nH]cc(C)c23)c1 (centres unmarked) [Example 14, 4-amino-N-(3-methoxypropyl)-3-(3-((3-methyl-1H-pyrrolo[2,3-b]pyridin-4-yl)oxy)phenyl)butanamide] |
| > 50 nM | > 50 nM | Cc1c[nH]c2nccc(Oc3cccc(C(CN)CC(=O)NCCCN(C)C)c3)c12 (centres unmarked) [Example 15, 4-amino-N-(3-(dimethylamino)propyl)-3-(3-((3-methyl-1H-pyrrolo[2,3-b]pyridin-4-yl)oxy)phenyl)butanamide] |
| 5 to 50 nM | 5 to 50 nM | Cc1c[nH]c2nccc(Oc3cccc(C(CN)CC(=O)N4CCN(C)CC4)c3)c12 (centres unmarked) [Example 16, 4-amino-3-(3-((3-methyl-1H-pyrrolo[2,3-b]pyridin-4-yl)oxy)phenyl)-1-(4-methylpiperazin-1-yl)butan-1-one] |
